# Source: article PMC9013686, “Inter-individual variation in chlorpyrifos toxicokinetics characterized by physiologically based kinetic (PBK) and Monte Carlo simulation comparing human liver microsome and Supersome™ cytochromes P450 (CYP)-specific kinetic data as model input” (Archives of Toxicology, 2022)
# Columns and labels:
# Assay type in all cases: in vitro ADME
# CYP1A2 in pooled HLMs = molecular target: T1, CYP1A2 in pooled HLMs (Homo sapiens, UniProt P05177); test: Pooled HLM incubation with CYP1A2 probe substrate (ISEF determination); settings: acetaminophen formation
# T1 construct: the native CYPs present in HLM; tissue Corning (Amsterdam, The Netherlands); host or cells: pooled human liver microsomes, 150 donors, mixed gender
# T1 sequence (P05177 1-516): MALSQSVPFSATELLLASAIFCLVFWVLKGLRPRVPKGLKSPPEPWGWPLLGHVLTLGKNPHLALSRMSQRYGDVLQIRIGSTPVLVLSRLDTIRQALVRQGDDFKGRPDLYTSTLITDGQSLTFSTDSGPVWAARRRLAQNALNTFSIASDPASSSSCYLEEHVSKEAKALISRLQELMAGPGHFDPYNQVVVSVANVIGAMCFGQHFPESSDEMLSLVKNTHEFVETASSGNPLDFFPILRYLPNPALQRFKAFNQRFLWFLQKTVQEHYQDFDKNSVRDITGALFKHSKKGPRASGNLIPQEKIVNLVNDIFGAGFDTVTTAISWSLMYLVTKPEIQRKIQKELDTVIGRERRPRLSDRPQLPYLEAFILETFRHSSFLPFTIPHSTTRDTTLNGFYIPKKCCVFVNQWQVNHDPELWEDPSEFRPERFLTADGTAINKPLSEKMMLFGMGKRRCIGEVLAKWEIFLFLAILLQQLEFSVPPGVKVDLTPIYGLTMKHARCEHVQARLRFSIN
# Procedure: (§1) To normalize for differences in intrinsic CYP activity between Supersome™ and pooled HLMs and enable scaling of the activities to the in vivo situation, CYP-specific ISEF values need to be established. […] The incubation method was similar as used for the CPF kinetic incubation assay described above, except that certain incubation conditions were replaced by the conditions listed in Table 1. The samples obtained were analyzed by UPLC-PDA for acetaminophen, 4-hydroxymephenytoin, and 6β-hydroxytestosterone formation catalyzed by 1A2, 2C19 and 3A4, or LC–MS/MS for (±)-hydroxybupropion formation catalyzed by 2B6.
# (§2) As mentioned before, the in vitro apparent kinetic parameters (Vmax and Km) for pathway 1 and pathway 2 in the HLM-based approach, and pathway 3 in both approaches were all obtained directly from reported studies using pooled HLMs (Buratti et al. [2003]; Sams et al. [2004]; Zhao et al. [2019]). Therefore, no extra calculations were required to define these parameters. […] It should be noted that the kinetic parameters for pathway 4 used in the two approaches were calculated as mean of the kinetic parameters (Vmax and Km) obtained using 25 individual HP samples (with correction for total protein concentration of each plasma sample).
# CYP3A4 in pooled HLMs = molecular target: T2, CYP3A4 in pooled HLMs (Homo sapiens, UniProt P08684); test: Pooled HLM incubation with CYP3A4 probe substrate (ISEF determination); settings: 6β-hydroxytestosterone formation
# T2 construct: the native CYPs present in HLM; tissue Corning (Amsterdam, The Netherlands); host or cells: pooled human liver microsomes, 150 donors, mixed gender
# T2 sequence (P08684 2-503): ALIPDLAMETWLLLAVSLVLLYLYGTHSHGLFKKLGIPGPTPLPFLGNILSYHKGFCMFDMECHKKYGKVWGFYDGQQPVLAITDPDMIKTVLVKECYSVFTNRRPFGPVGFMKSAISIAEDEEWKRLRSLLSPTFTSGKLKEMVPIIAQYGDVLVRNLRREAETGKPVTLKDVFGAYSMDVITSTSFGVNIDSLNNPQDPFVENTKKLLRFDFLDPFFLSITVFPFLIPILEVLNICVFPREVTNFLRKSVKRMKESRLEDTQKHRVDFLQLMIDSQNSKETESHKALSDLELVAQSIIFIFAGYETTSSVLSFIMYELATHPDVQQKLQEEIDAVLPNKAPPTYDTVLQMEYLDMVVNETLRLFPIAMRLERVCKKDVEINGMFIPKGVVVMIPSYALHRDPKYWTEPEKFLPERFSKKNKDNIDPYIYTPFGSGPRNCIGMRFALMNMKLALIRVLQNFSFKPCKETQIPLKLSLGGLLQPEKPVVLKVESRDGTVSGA
# Procedure: as §1, §2
# CYP3A4 = CYP3A4 (Homo sapiens, UniProt P08684); test: Supersome CYP3A4 kinetic incubations; set-up: purchased Corning (Amsterdam, The Netherlands); host or cells: baculovirus-transfected insect cells
# Chain of CYP3A4 (P08684 2-503 limits assumed): as the sequence (P08684 2-503) above
# Procedure: The final incubations were carried out in 50 mM Tris–HCl (pH 7.4) containing 5 mM MgCl2, 1 mM EDTA (as an A-esterase PON1 inhibitor) (Bizoń and Milnerowicz [2018]), 50 µM iso-OMPA (as a B-esterases inhibitor) (Lane et al. [2006]), Supersome™ isoform (at final concentration of 0.005 nmol CYP/ml for 1A2, 0.001 nmol CYP/ml for 2B6, 0.01 nmol CYP/ml for 2C19, and 0.01 nmol CYP/ml for 3A4) and CPF at different final concentrations (0.05, 0.1, 0.25, 0.5, 1, 5 and 10 µM for 1A2, 0.05, 0.1, 0.25, 0.5, 1, 5 10 and 25 µM for 2B6, 1, 2.5, 5, 10, 25 and 50 µM for 2C19, and 0.5, 1, 2.5, 5, 10, 25 and 50 µM for 3A4), which were added from 100 times concentrated stock solutions in ACN. After 1 min preincubation in a 37 °C water bath, 5 µl NADPH (final concentration 1 mM) was added to the incubation system. Control incubations were performed by replacing NADPH with the same amount of Tris–HCl (pH 7.4). The total volume of the incubation mixtures was 200 µl. The incubations lasted for 2 min at 37 °C and were terminated by addition of 50 µl ice cold ACN and subsquently put on ice. After that, samples were centrifuged at 16,000 g (4 ℃) for 5 min and supernatants of samples were separated into two equal portions for Ultra-Performance Liquid Chromatography-Photodiode Array (UPLC-PDA) and Liquid Chromatography Mass Spectrometry (LC–MS/MS) analysis, respectively.
# as §1
# As mentioned before, the in vitro apparent kinetic parameters (Vmax and Km) for pathway 1 and pathway 2 in the HLM-based approach, and pathway 3 in both approaches were all obtained directly from reported studies using pooled HLMs (Buratti et al. [2003]; Sams et al. [2004]; Zhao et al. [2019]). Therefore, no extra calculations were required to define these parameters. The kinetic parameters for the ISEF calculation, pathway 1 and 2 in the Supersome™-based approach, and pathway 4 in both approaches (25 individuals) were all obtained by fitting the experimental data to the Michaelis–Menten model using GraphPad (GraphPad Prism 5.0 software, San Diego, CA, USA). It should be noted that the kinetic parameters for pathway 4 used in the two approaches were calculated as mean of the kinetic parameters (Vmax and Km) obtained using 25 individual HP samples (with correction for total protein concentration of each plasma sample).
# The in vivo Kmi values were assumed to be equal to the apparent Kmi(app) values (µM) obtained in the in vitro incubations, while the in vivo Vmaxi for each CYP isoform was derived from their corresponding apparent CYP isoform Vmaxi(app) (pmol/min/pmolCYP) using Eq. 3:3 Vmaxi=Vmaxiapp×CYPiabundance×ISEF×60×MPL×1000×VL/1,000,000,
SMILES,Vmax (pooled HLMs) (CYP1A2 in pooled HLMs),Vmax (pooled HLMs) (CYP3A4 in pooled HLMs),"Vmax (Supersome) (CYP3A4; 6β-hydroxytestosterone formation, Supersome CYP3A4) [pmol/min/pmol CYP]","ISEF (CYP3A4; CYP3A4, calculated on the basis of Eq. 4 from probe substrate Vmax in pooled HLMs and Supersome)"
"CCOc1ccc(NC(C)=O)cc1 [Phenacetin, phenacetin]",0.15 nmol/min/mg microsomal protein,,,
"C[C@]12CC[C@H]3[C@@H](CCC4=CC(=O)CC[C@@]43C)[C@@H]1CC[C@@H]2O [Testosterone, testosterone, reference compound]",,17.29 nmol/min/mg microsomal protein,1179,0.11
